# In patent US20230348401A1, “Inhibitors of Glucose-6-phosphate Dehydrogenase and Uses Thereof” (The Trustees of Princeton University, priority 2020, published 2023):
# Target: G6PD (Homo sapiens, UniProt P11413)
# Assay: G6PD enzymatic activity by diaphorase-coupled assay
# Conditions: not given
# Sequence of G6PD (P11413 28-515): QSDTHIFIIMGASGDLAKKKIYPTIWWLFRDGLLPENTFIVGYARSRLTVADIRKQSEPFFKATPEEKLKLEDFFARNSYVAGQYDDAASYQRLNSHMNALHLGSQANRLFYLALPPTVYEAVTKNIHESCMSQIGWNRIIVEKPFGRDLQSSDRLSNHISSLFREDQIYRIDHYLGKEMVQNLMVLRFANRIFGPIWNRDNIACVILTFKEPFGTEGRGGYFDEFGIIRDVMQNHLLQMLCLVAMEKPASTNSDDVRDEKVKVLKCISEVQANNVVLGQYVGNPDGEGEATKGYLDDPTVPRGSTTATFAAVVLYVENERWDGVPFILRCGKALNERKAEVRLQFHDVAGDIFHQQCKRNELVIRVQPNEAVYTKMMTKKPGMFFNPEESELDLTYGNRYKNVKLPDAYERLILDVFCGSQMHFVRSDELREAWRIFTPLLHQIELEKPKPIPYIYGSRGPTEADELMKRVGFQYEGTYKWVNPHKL
row,IC50,Compound
1,1 to 1000 µM,N#Cc1cc(Nc2ncc3c(n2)CCCCC3=O)cc(OCCN)c1 [Compound 0128]
2,< 1 µM,N#Cc1cc(Nc2ncc3c(n2)CCC(C(F)(F)F)C3=O)cs1 (centres unmarked) [KG-0318]
3,1 to 1000 µM,N#Cc1cccc(Nc2ncc3c(n2)CCCC3O)c1 (centres unmarked) [KG-0261-10]
4,> 1000 µM,CO/N=C1\CCCc2nc(Nc3cccc(C#N)c3)ncc21 [KG-0260-0]
5,1 to 1000 µM,O=C1c2cnc(Nc3cccc(Cl)c3)nc2CCCC1O (centres unmarked) [KG-0332-0]
6,1 to 1000 µM,N#Cc1cccc(Nc2ncc3c(n2)CCCS3(=O)=O)c1 [KG-0249-0]
7,1 to 1000 µM,N#Cc1cncc(Nc2ncc3c(n2)CCCC3=O)c1 [KG-0198-0]
8,< 1 µM,N#Cc1cc(Nc2ncc3c(n2)CCCCC3=O)cc(OCc2cnoc2)c1 [Compound 0123]
9,> 1000 µM,O=C1CCCc2nc(Nc3ncco3)ncc21 [KG-0213-0]
10,1 to 1000 µM,N#Cc1cc(CS(=O)(=O)C(F)(F)F)cc(Nc2ncc3c(n2)CCCCC3=O)c1 [Compound 0163]
11,1 to 1000 µM,N#Cc1cccc(Nc2ncc3c(n2)CCCC(O)C3=O)c1 (centres unmarked) [KG-0331]
12,1 to 1000 µM,CCCc1cc(C#N)cc(Nc2ncc3c(n2)CCCCC3=O)c1 [Compound 0161]
13,1 to 1000 µM,Cc1cc(Nc2ncc3c(n2)CCCC3=O)no1 [KG-0220-0]
14,1 to 1000 µM,O=C1CCCc2nc(Nc3nccs3)ncc21 [KG-0214-0]
15,< 1 µM,COc1ccccc1COc1cc(C#N)cc(Nc2ncc3c(n2)CCCCC3=O)c1 [Compound 0122]
16,< 1 µM,N#Cc1cc(Nc2ncc3c(n2)CCCCC3=O)cc(OCc2ccccn2)c1 [Compound 0121]
17,< 1 µM,N#Cc1cc(Nc2ncc3c(n2)CCC(O)C3=O)cs1 (centres unmarked) [KG-0317]
18,< 1 µM,COC1CCc2nc(Nc3csc(C#N)c3)ncc2C1=O (centres unmarked) [KG-0321]
19,< 1 µM,O=C1c2cnc(Nc3cccc(Cl)c3)nc2CCCC1Br (centres unmarked) [KG-0335-0]
20,< 1 µM,N#Cc1cc(Nc2ncc3c(n2)CCCCC3=O)cc(OCC2CCOCC2)c1 [Compound 0124]

# Continued, molecule first:
row,Compound,IC50
1,N#Cc1ccc(F)c(Nc2ncc3c(n2)CCCCC3=O)c1 [Compound 0088],1 to 1000 µM
2,N#Cc1cc(Nc2ncc3c(n2)CCCCC3=O)cn1Cc1ccccc1 [Compound 0058],1 to 1000 µM
3,C#CCCCOc1cc(C#N)cc(Nc2ncc3c(n2)CCCCC3=O)c1 [Compound 0094],< 1 µM
4,N#Cc1cc(Nc2ncc3c(n2)CCCCC3=O)cc(OCc2cccc(Cl)c2)c1 [Compound 0046],< 1 µM
5,N#Cc1cc(Nc2ncc3c(n2)CCCCC3=O)cc(OCc2ccc(Cl)cc2)c1 [Compound 0045],1 to 1000 µM
6,O=C1CCCCc2nc(Nc3cc(Cl)cc(C(F)(F)F)c3)ncc21 [Compound 0027],1 to 1000 µM
7,N#Cc1cc(Nc2ncc3c(n2)CCCCC3=O)cc(OCc2ccc(Br)cc2)c1 [Compound 0073],1 to 1000 µM
8,N#C/C=C1/CCCCc2nc(Nc3csc(C#N)c3)ncc21 [Compound 0056],1 to 1000 µM
9,N#Cc1cc(Nc2ncc3c(n2)CCCCC3=O)cc(OC2CCCCC2)c1 [Compound 0063],< 1 µM
10,N#C/C=C1\CCCCc2nc(Nc3csc(C#N)c3)ncc21 [Compound 0055],1 to 1000 µM
11,N#Cc1cc(Nc2ncc3c(n2)C2CCC(C2)C3=O)cs1 (centres unmarked) [Compound 0040],1 to 1000 µM
12,N#Cc1cc(Nc2ncc3c(n2)CCCCC3=O)cc(OCc2cccnc2)c1 [Compound 0118],< 1 µM
13,N#Cc1cc(Nc2ncc3c(n2)CCCCC3=O)cc(OCCc2ccccc2)c1 [Compound 0103],< 1 µM
14,N#Cc1cc(Nc2ncc3c(n2)CCCCC3=O)cc(OCc2ccc3ccccc3c2)c1 [Compound 0080],1 to 1000 µM
15,N#Cc1cc(Nc2ncc3c(n2)CCCC/C3=N/O)cs1 [Compound 0054],> 1000 µM
16,CCCCOc1cc(C#N)cc(Nc2ncc3c(n2)CCCCC3=O)c1 [Compound 0089],1 to 1000 µM
17,N#Cc1cc(Nc2ncc3c(n2)CCCCC3=O)cc(OCC2CCC2)c1 [Compound 0098],1 to 1000 µM
18,CC1(C)OB(c2cccc(Nc3ncc4c(n3)CCCCC4=O)c2)OC1(C)C [Compound 0023],1 to 1000 µM
19,N#Cc1cc(Nc2ncc3c(n2)CCCCC3=O)cc(OC(=O)c2ccccc2)c1 [Compound 0085],1 to 1000 µM

row,Compound,IC50
1,COc1ccc(COc2cc(C#N)cc(Nc3ncc4c(n3)CCCCC4=O)c2)cc1 [Compound 0048],< 1 µM
2,CCCOc1cc(C#N)cc(Nc2ncc3c(n2)CCCCC3=O)c1 [Compound 0060],< 1 µM
3,N#Cc1cc(Nc2ncc3c(n2)CCCCC3=O)cc(OCc2cccc3ccccc23)c1 [Compound 0079],< 1 µM
4,N#Cc1cc(Nc2ncc3c(n2)CCCCC3=O)c[nH]1 [Compound 0051],< 1 µM
5,O=C1CCCCc2nc(Nc3ccc(F)c(Cl)c3)ncc21 [Compound 0017],< 1 µM
6,N#Cc1cc(Nc2ncc3c(n2)CCCCC3=O)cc(OCc2ccccc2)c1 [Compound 0035],< 1 µM
7,CCC(CC)Oc1cc(C#N)cc(Nc2ncc3c(n2)CCCCC3=O)c1 [Compound 0101],1 to 1000 µM
8,N#Cc1cc(Nc2ncc3c(n2)CCCCC3(F)F)cs1 [Compound 0031],1 to 1000 µM
9,Cc1ccc(C(=O)c2cc(Cl)cc(Nc3ncc4c(n3)CCCCC4=O)c2)cc1 [Compound 0043],> 1000 µM
10,Cc1ccc(COc2cc(C#N)cc(Nc3ncc4c(n3)CCCCC4=O)c2)cc1 [Compound 0074],< 1 µM
11,N#CC(C#N)=C1CCCCc2nc(Nc3csc(C#N)c3)ncc21 [Compound 0034],< 1 µM
12,C#CCC1(COc2cc(C#N)cc(Nc3ncc4c(n3)CCCCC4=O)c2)N=N1 [Compound 0095],> 1000 µM
13,N#Cc1cc(Nc2ncc3c(n2)CCCCC3=O)cc(OCc2ccc(F)cc2)c1 [Compound 0076],< 1 µM
14,O=C1CCCCc2nc(Nc3csc(-c4nnn[nH]4)c3)ncc21 [Compound 0033],1 to 1000 µM
15,CC1(C)[C@H]2CCC1(C)[C@@H](Oc1cc(C#N)cc(Nc3ncc4c(n3)CCCCC4=O)c1)C2 [Compound 0093],> 1000 µM
16,N#Cc1scc(Nc2ncc3c(n2)CCCCC3=O)c1-n1cccc1 [Compound 0071],< 1 µM
17,N#Cc1cc(Nc2ncc3c(n2)CCCCC3=O)cc(OC(c2ccccc2)c2ccccc2)c1 [Compound 0100],1 to 1000 µM
18,COC(=O)c1ccc(COc2cc(C#N)cc(Nc3ncc4c(n3)CCCCC4=O)c2)cc1 [Compound 0096],> 1000 µM

# Same assay, conditions: Normalized in vitro IC50, Table 1; diaphorase-coupled biochemical assay, normalization to an intraplate control
row,IC50,Compound
1,1 to 1000 µM,COc1cccc(Nc2ncc3c(n2)CCCC3=O)c1 [KG-0185-0]
2,1 to 1000 µM,Cc1ccccc1Nc1ncc2c(n1)CCCC2=O [KG-0056-0A]
3,1 to 1000 µM,O=C1CCCc2nc(Nc3ccc4[nH]ccc4c3)ncc21 [KG-0168-0]
4,1 to 1000 µM,O=C1CCCc2nc(Nc3cccc(C4(O)COC4)c3)ncc21 [KG-0242-0]
5,> 1000 µM,O=C(O)c1cccc(Nc2ncc3c(n2)CCCC3=O)c1 [KG-0237-0]
6,1 to 1000 µM,O=C1CCCc2nc(Nc3ccc4occc4c3)ncc21 [KG-0228-0]
7,1 to 1000 µM,O=C1CCCc2nc(Nc3ccccc3)ncc21 [KG-0187-0]
8,1 to 1000 µM,CC#Cc1cccc(Nc2ncc3c(n2)CCCC3=O)c1 [KG-0204-0]
9,1 to 1000 µM,O=C1CCCc2nc(Nc3ccc4ncsc4c3)ncc21 [KG-0224-0]
10,> 1000 µM,O=C1CCCc2nc(Nc3cc[nH]n3)ncc21 [KG-0216-0]
11,1 to 1000 µM,O=C1CCCc2nc(Nc3cccc(Oc4ccccc4)c3)ncc21 [KG-0251-0]
12,1 to 1000 µM,O=C1CCCc2nc(Nc3cccc(C(F)(F)F)c3)ncc21 [KG-0063-0]
13,< 1 µM,O=C1CCCc2nc(Nc3ccc4[nH]ncc4c3)ncc21 [KG-0232-0]
14,> 1000 µM,O=C1CCCc2nc(Nc3nc4ccccc4s3)ncc21 [KG-0211-0]
15,1 to 1000 µM,Cc1ccc(Nc2ncc3c(n2)CCCC3=O)cc1C [KG-0188-0]
16,1 to 1000 µM,O=C1CCCc2nc(Nc3ccon3)ncc21 [KG-0215-0]

row,IC50,Compound
1,1 to 1000 µM,Cc1cccc(Nc2ncc3c(n2)CCC3=O)c1 [KG-0138-0]
2,< 1 µM,N#Cc1cccc(Nc2ncc3c(n2)CCCCC3=O)c1 [KG-0184-0A]
3,1 to 1000 µM,O=C1CCCc2nc(Nc3ccc4nc[nH]c4c3)ncc21 [KG-0223-0]
4,1 to 1000 µM,O=C1CCCc2nc(Nc3nc4ccccc4[nH]3)ncc21 [KG-0209-0]
5,1 to 1000 µM,O=C1CCCc2nc(Nc3cccc(Br)c3)ncc21 [KG-0167]
6,> 1000 µM,Cc1cccc(Nc2ncc3c(n2)CCCC3=O)c1C [KG-0060-0]
7,1 to 1000 µM,NC(=O)c1cccc(Nc2ncc3c(n2)CCCC3=O)c1 [KG-0238-0]
8,1 to 1000 µM,CCNC(=O)Nc1cccc(Nc2ncc3c(n2)CCCC3=O)c1 [KG-0283-0]
9,1 to 1000 µM,COC(=O)c1cccc(Nc2ncc3c(n2)CCCC3=O)c1 [KG-0064-0]
10,< 1 µM,O=C1CCCc2nc(Nc3cccc(Cl)c3)ncc21 [KG-0065-0]
11,< 1 µM,N#Cc1cccc(Nc2ncc3c(n2)CCC(Br)C3=O)c1 (centres unmarked) [KG-0206-0]
12,1 to 1000 µM,O=C1CCCc2nc(Nc3ccc4cn[nH]c4c3)ncc21 [KG-0229-0]
13,< 1 µM,COc1cc(C#N)cc(Nc2ncc3c(n2)CCCC3=O)c1 [KG-0255-0]
14,1 to 1000 µM,O=C1CCCc2nc(Nc3cccc(OCc4ccccc4)c3)ncc21 [KG-0252-0]
15,< 1 µM,N#Cc1cc(Cl)cc(Nc2ncc3c(n2)CCCC3=O)c1 [KG-0265-0]

# Same assay, conditions: Normalized in vitro IC50, Table 1A; diaphorase-coupled biochemical assay, normalization to an intraplate control
row,IC50,Compound
1,1 to 1000 µM,N#CCc1cccc(Nc2ncc3c(n2)CCCCC3=O)c1 [Compound 0024]
2,1 to 1000 µM,NS(=O)(=O)c1ccc(Nc2ncc3c(n2)CCCCC3=O)cc1 [Compound 0044]
3,1 to 1000 µM,O=C1CCCCc2nc(Nc3ccccc3F)ncc21 [Compound 0015]
4,1 to 1000 µM,Cc1ccc(Nc2ncc3c(n2)CCCCC3=O)cc1 [Compound 0005]
5,1 to 1000 µM,O=C1CCCCc2nc(Nc3ccc(SC(F)(F)F)cc3)ncc21 [Compound 0009]
6,1 to 1000 µM,O=C(c1ccccc1)c1cc(Cl)cc(Nc2ncc3c(n2)CCCCC3=O)c1 [Compound 0042]
7,1 to 1000 µM,O=C1CCCCc2nc(Nc3ccc(Br)cc3)ncc21 [Compound 0003]
8,1 to 1000 µM,O=C1CCCCc2nc(Nc3ccccc3Cl)ncc21 [Compound 0016]
9,1 to 1000 µM,O=C1CCCCc2nc(Nc3ccc(Cl)cc3)ncc21 [Compound 0002]
10,1 to 1000 µM,N#CCc1ccc(Nc2ncc3c(n2)CCCCC3=O)cc1 [Compound 0026]
